Data on five molecules can be found in patent publication US20260234125A1, “CYCLIC AMINE DERIVATIVE, AND COMPOSITION AND USE THEREOF” (SHANGHAI JINGXIN BIOMEDICAL CO., LTD., priority 2023, published 2026).

Molecules are shown by their SMILES.

The target of this assay is T1, human Apo(a) protein (Homo sapiens, UniProt P08519).
T1 construct: biotin (biotinylated)
T1 sequence (P08519 20-2040): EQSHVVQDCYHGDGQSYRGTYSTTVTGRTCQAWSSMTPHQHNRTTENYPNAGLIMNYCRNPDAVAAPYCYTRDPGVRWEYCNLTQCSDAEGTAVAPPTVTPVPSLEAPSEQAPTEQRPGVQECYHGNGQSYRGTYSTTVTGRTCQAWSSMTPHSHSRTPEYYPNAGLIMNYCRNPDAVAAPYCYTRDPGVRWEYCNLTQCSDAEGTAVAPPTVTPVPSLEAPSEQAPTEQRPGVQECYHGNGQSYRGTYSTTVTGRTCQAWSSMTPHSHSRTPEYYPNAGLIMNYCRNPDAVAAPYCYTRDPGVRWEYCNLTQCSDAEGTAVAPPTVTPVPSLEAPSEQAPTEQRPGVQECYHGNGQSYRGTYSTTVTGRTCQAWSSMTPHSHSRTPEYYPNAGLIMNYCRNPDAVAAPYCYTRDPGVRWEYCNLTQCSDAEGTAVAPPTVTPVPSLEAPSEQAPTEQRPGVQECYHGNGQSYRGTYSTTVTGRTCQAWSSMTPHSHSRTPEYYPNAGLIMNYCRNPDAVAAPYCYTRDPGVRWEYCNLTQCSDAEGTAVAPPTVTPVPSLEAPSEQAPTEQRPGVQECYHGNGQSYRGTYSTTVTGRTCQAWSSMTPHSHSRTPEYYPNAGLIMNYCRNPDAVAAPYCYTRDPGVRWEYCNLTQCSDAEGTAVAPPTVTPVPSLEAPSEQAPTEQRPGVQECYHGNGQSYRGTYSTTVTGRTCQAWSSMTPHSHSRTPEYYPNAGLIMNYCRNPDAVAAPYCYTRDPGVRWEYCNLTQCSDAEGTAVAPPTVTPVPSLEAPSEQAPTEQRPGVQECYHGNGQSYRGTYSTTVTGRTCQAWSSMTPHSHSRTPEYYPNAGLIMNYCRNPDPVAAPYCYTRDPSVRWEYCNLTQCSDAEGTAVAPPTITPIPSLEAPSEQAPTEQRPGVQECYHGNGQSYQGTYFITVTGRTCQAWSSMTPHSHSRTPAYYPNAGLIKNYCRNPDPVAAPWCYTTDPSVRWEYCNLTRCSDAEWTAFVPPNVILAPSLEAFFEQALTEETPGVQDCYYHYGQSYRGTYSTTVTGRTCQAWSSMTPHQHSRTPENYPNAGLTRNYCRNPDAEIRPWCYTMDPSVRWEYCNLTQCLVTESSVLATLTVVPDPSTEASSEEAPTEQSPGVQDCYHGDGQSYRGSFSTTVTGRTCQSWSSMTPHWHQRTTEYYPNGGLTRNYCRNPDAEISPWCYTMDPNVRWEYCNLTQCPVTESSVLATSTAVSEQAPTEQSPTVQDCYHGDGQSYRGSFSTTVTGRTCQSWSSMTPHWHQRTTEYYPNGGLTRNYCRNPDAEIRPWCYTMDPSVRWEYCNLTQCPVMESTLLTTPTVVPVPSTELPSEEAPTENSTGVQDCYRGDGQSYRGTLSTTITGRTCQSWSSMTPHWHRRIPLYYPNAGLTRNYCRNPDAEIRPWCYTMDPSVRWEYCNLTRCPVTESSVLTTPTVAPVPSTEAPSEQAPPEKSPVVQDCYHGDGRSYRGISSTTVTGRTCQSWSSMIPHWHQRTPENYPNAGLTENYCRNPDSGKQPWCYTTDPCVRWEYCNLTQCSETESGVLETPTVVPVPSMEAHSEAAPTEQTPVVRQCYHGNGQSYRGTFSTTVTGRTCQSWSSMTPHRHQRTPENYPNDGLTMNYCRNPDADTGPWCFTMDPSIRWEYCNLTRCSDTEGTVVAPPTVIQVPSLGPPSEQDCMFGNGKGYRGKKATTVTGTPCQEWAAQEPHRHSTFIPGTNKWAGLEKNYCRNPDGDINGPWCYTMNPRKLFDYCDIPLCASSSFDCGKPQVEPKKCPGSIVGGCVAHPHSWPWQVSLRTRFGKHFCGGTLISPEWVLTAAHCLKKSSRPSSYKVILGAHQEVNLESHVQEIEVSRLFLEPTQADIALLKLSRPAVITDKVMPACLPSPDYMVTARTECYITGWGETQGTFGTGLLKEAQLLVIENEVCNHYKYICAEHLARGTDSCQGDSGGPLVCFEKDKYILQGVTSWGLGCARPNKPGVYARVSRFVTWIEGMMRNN
The experiment in a line: BLI affinity of compounds to Apo(a). As to conditions: biotinylated apolipoprotein(a) on SA sensor, compound 100 nM. Format: binding. The method, then:
• 1. Experimental purpose: The purpose of this test is to test the affinity of the compounds of the present disclosure to Apo(a) • 2. Experimental instruments and reagents: • Molecular interaction analyzer (ForteBio Octet red 96e), • SA sensor (ForteBio), • 96-well plates were purchased from Greine, • 3. Experimental methods:
Prepared two 96-well plates, one as a sample plate and another as a pre-wett plate, curing buffer was added to a 200 μL well of the pre-wet plate, and the SA sensor was pre-wetted for at least ten minutes. All reagents and samples were added to another black sample plate, after the sample addition was completed, the sensor plate and the sample plate were placed into the ForteBio Octet red 96e instrument. The program was set up in sequence for detection. The experimental temperature was set to 30° C. and the acquisition frequency was set at 5.0 Hz. The biosensor was run in 1×PBS, pH7.4, 0.02% Tween-20, 0.1% BSA in the first column for 60 seconds, which was the baseline step. Biotinylated apolipoprotein(a) was diluted to 40 μg/ml with 1×PBS, pH7.4, 0.02% Tween-20, 0.1% BSA, and added to the second column, where it was run for a period of time until the amount of curing on the sensor reaches 2.0 nm. The biosensor was run in 1×PBS, pH7.4, 0.02% Tween-20, 0.1% BSA in the third column for 60 seconds, which was the baseline step. The compound was diluted to 100 nM with 1×PBS, pH7.4, 0.02% Tween-20, 0.1% BSA, and added to the fourth column, where the sensor was run for 60 seconds. The sensor was run in 1×PBS, pH7.4, 0.02% Tween-20, 0.1% BSA in the third column for 120 seconds, during this process, the compound dissociated from the sensor. The affinity constant KD reflects the size of the interaction binding ability. When the concentration of the analyte is at KD, the equilibrium signal Req is half of Rmax.
In general, Kd refers to a measure of binding affinity in units of concentration. `O=C(O)[C@@H](Cc1cccc(COC2CC(OCc3cccc(C[C@H](C(=O)O)[C@H]4CCNC4)c3)CC(OCc3cccc(C[C@H](C(=O)O)[C@H]4CCNC4)c3)C2)c1)[C@H]1CCNC1` (some centres unmarked) [Example 6] yielded a Kd of 19.9 nM.
The result for `O=C(O)[C@@H](Cc1cccc(Oc2nc(Oc3cccc(C[C@H](C(=O)O)[C@H]4CCNC4)c3)nc(Oc3cccc(C[C@H](C(=O)O)[C@H]4CCNC4)c3)n2)c1)[C@H]1CCNC1` [Example 7] reads 8.06 nM; that for `O=C(NCCN(CCNC(=O)c1cccc(C[C@H](C(=O)O)[C@H]2CCNC2)c1)CCNC(=O)c1cccc(C[C@H](C(=O)O)[C@H]2CCNC2)c1)c1cccc(C[C@H](C(=O)O)[C@H]2CCNC2)c1` [Example 8], 18.7 nM.
The result for `O=C(O)[C@@H](Cc1cccc(OCc2cc(COc3cccc(C[C@H](C(=O)O)[C@H]4CCNC4)c3)cc(COc3cccc(C[C@H](C(=O)O)[C@H]4CCNC4)c3)c2)c1)[C@H]1CCNC1` [Example 10] reads 25.3 nM; that for `O=C(O)[C@@H](Cc1cccc(CN(Cc2cccc(C[C@H](C(=O)O)[C@H]3CCNC3)c2)Cc2cccc(C[C@H](C(=O)O)[C@H]3CCNC3)c2)c1)C1CNC1` [Example 11], 14.2 nM.
